Laboratory results published in US7880007B2, “Bicyclic substituted phenyl piperidine modulators of muscarinic receptors” (Vertex Pharmaceuticals Incorporated, priority 2004, dated 2011).

How the values were obtained:
Assay type in all cases: cell-based
M4 muscarinic receptor = biological target: T1, M4 muscarinic receptor (Homo sapiens, UniProt P08173); assay: Functional mobilization of intracellular calcium (FLIPR), M4-CHO cells; details: for M4 Activity: M4-CHO cells, calcium mobilization (FLIPR)
T1 construct: expressed in transfected cells; host or cells: CHO (M4-CHO)
T1 sequence (P08173 1-479): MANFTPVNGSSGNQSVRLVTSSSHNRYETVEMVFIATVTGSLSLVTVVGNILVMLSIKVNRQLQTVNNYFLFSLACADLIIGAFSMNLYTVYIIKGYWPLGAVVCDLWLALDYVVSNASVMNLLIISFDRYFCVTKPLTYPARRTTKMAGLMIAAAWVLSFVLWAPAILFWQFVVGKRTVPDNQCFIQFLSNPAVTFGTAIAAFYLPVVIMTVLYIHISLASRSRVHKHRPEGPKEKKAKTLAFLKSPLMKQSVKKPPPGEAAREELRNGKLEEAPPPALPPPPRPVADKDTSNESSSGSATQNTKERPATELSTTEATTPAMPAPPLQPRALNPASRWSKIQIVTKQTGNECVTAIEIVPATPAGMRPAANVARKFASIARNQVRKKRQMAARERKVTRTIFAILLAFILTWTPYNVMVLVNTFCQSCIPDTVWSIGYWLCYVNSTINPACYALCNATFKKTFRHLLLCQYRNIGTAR
Method: (§1) Functional Mobilization of Intracellular Calcium to Determine Muscarinic Receptor Activity:
(§2) CHO cells expressing muscarinic receptors (M1 to M5) are grown as monolayers in tissue culture flasks at 37° C. in a humidified atmosphere containing 5% CO2 and passaged every 3-5 days. The growth media is Dulbecco's modified eagles medium (DMEM, Gibco Cat #12430-054), containing 25 mM Hepes and supplemented with Fetal Bovine Serum (Hyclone, cat #SH30071.03), 0.1 mM of MEM non-essential amino acids (GIBCO, Cat #11140-050), 1 mM MEM Sodium Pyruvate (GIBCO Cat #11360-070) and 100 units/ml of Penicillin G and 100 μg/ml of Streptomycin (GIBCO Cat #15140-122). The recombinant muscarinic receptor cell lines are grown under antibiotic pressure with media containing 25 μg/ml zeocin and 500 μg/ml G418 (M1-CHO), 4 μg/ml puromycin, 50 μg/ml zeocin and 2.5 μg/ml blasticidin (M2 and M4-CHO) or 50 μg/ml zeocin and 4 μg/ml puromycin (M3 and M5-CHO).
(§3) Cells are harvested at 80-90% confluence using Versene (GIBCO Cat #15040-066), collected by centrifugation and seeded 18-24 hrs prior to running the calcium assay at a density of 5,000-10,000 cells/well in […], clear-bottomed 384-well plates (BD Biocoat, poly-D-lysine, Cat #356663). The day of the experiment, the cells are washed with a plate washer (Bioteck Instruments, ELX 405) using bath 1 buffer (140-mM NaCl, 4.5-mM KCl, 2-mM CaCl2, 1-mM MgCl2, 10-mM Hepes-Na, 10-mM Glucose, pH 7.4, with NaOH) containing 1 mM Probenecid. Next, the calcium dye Fluo-3 (25 μl/well of Fluo-3 AM at 4 μM, Molecular Probes F-1241, in Bath 1 buffer containing 1 mM Probenecid) is added to the 25 μl of Bath 1 remaining in each well after the plate wash and the dye is loaded at 37° C. in the tissue culture incubator for 60-90 min. The fluorescent dye is removed using the plate washer with Bath 1 containing 1 mM Probenecid, leaving 25 μl/well of this solution after the wash. Alternatively, cells can be loaded with the calcium indicator from Molecular Devices (Calcium 3 Assay Reagents, Cat #R7181) adding 5 μl of a 5× solution dye in Bath 1 containing 1 mM Probenecid (10 ml per dye flask cat #R7182 to generate a solution 20×) to 20 μl of the same buffer. After loading for 60 min, the experiment can be run without having to remove the dye.
(§4) Compounds are prepared at a 2× fold concentration in a 96-well plate (round bottom, Costar Corning cat #3656), by reconstituting the pre-spotted compounds in bath 1 containing 1 mM probenecid. The final concentration DMSO is 0.5%, and the amount of DMSO is normalized across the assay plate. To determine an agonist action of the compounds on muscarinic receptors, the reconstituted compounds are added (25 μl compound/well) to the cell assay plate (containing 25 μl/well) using the multi-channel robotic system of the FLIPR 3 Instrument (Molecular Devices, Sunnyvale, Calif.). To determine a functional inhibitory action of the compounds on muscarinic receptors, the reconstituted compounds are added (25 μl compound/well) to the assay plate and pre-incubated for 15 min prior to adding 25 μl of Carbachol at 3× the EC80 for each muscarinic subtype. Alternatively, the compounds can be co-applied simultaneously with the agonist. In both assay modes, the fluorescence is recorded for 60 sec (excitation wavelength is […] and emission wavelength 540 nm) using the FLIPR 3 instrument.
(§5) The potency, efficacy and selectivity of the muscarinic compounds were evaluated by screening the compound activity across the whole family (M1 to M5 cells). Compounds were also screened for activity on other proteins such as other GPCRs and ion channels to determine selectivity on M4 receptors.
(§6) Examples of activities and efficacies of the muscarinic compounds of formulae (I, Ia, Ib, and II) on modulating M1, M2, M3 and M4 receptors are shown below in Table 3. […]

M2 muscarinic receptor = biological target: T2, M2 muscarinic receptor (Homo sapiens, UniProt P08172); assay: Functional mobilization of intracellular calcium (FLIPR), M2-CHO cells; details: for M2 Activity: M2-CHO cells, calcium mobilization (FLIPR)
T2 construct: expressed in transfected cells; host or cells: CHO (M2-CHO)
T2 sequence (P08172 1-466): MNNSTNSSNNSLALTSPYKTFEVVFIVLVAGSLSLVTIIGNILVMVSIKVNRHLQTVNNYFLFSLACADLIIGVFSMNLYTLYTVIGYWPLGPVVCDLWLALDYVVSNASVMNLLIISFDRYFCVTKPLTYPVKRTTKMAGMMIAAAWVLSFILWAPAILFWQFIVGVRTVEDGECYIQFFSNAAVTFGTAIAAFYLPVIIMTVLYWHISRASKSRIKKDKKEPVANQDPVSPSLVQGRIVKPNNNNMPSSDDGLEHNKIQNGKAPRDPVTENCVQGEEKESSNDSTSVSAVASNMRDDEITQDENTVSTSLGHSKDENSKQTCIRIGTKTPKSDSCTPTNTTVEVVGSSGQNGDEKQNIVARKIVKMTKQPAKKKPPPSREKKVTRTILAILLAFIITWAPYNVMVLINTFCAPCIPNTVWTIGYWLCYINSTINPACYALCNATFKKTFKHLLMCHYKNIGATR
Method: as §1, §2, §3, §4, §5, §6

M1 muscarinic receptor = biological target: T3, M1 muscarinic receptor (Homo sapiens, UniProt P11229); assay: Functional mobilization of intracellular calcium (FLIPR), M1-CHO cells; details: for M1 Activity: M1-CHO cells, calcium mobilization (FLIPR)
T3 construct: expressed in transfected cells; host or cells: CHO (M1-CHO)
T3 sequence (P11229 1-460): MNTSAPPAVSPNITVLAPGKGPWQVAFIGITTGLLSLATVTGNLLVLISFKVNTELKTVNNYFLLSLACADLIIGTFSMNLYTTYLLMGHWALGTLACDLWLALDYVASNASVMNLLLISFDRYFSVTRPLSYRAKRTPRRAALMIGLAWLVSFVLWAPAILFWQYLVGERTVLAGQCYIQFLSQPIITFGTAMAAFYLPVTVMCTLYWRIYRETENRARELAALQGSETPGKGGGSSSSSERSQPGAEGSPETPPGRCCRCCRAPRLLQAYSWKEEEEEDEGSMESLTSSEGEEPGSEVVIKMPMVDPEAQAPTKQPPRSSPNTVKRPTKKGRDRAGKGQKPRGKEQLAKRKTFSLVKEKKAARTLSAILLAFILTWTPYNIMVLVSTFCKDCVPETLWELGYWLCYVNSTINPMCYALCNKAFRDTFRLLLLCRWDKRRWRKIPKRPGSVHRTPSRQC
Method: as §1, §2, §3, §4, §5, §6

[1] = 100% efficacy = maximum response obtained with the Carbachol control
[2] = 100% efficacy is the maximum response obtained with the Carbachol control

| Compound | Emax (M4 muscarinic receptor; [1]) | M4 Activity (M4 muscarinic receptor) | Emax (M2 muscarinic receptor; [1]) | M2 Activity (M2 muscarinic receptor) | Emax (M1 muscarinic receptor; [1]) | M1 Activity (M1 muscarinic receptor) | Emax (M4 muscarinic receptor; [2]) | Emax (M2 muscarinic receptor; [2]) | Emax (M1 muscarinic receptor; [2]) |
| --- | --- | --- | --- | --- | --- | --- | --- | --- | --- |
| COc1ccccc1C1(C#N)CCN(C[C@H]2C[C@H]3CC[C@H]2C3)CC1 [Compound 172] | 25 to 100% | +++ (activity was measured to be less than 1.0 μM) | 25 to 100% | +++ (activity was measured to be less than 1.0 μM) | 25 to 100% | +++ (activity was measured to be less than 1.0 μM) |  |  |  |
| COc1ccc(Cl)cc1C1CCN(CC2CC3C=CC2C3)CC1 (stereo not drawn) [Compound 141] | 25 to 100% | +++ (activity was measured to be less than 1.0 μM) | 25 to 100% | ++ (activity was measured to be from 1.0 μM to 5.0 μM) | 25 to 100% | ++ (activity was measured to be from 1.0 μM to 5.0 μM) |  |  |  |
| COc1ccccc1C1(C#N)CCN(C2CCCCCC2)CC1 [Compound 279] | 25 to 100% | ++ (activity was measured to be from 1.0 μM to 5.0 μM) | < 25% | + (activity was measured to be greater than 5.0 μM) | < 25% | ++ (activity was measured to be from 1.0 μM to 5.0 μM) |  |  |  |
| COc1ccc(Cl)cc1C1(O)CCN(C2CCCCC2)CC1 [Compound 99] | 25 to 100% | ++ (activity was measured to be from 1.0 μM to 5.0 μM) | < 25% | + (activity was measured to be greater than 5.0 μM) | < 25% | + (activity was measured to be greater than 5.0 μM) |  |  |  |
| COc1ccccc1C1CCN(C2CC3CCC2O3)CC1 (stereo not drawn) [Compound 312] | < 25% | + (activity was measured to be greater than 5.0 μM) | < 25% | + (activity was measured to be greater than 5.0 μM) | < 25% | + (activity was measured to be greater than 5.0 μM) |  |  |  |
| CCOC(=O)N1CCC(N2CCC(OC)(c3cc(Cl)ccc3OC)CC2)CC1 [Compound 55] | 25 to 100% | +++ (activity was measured to be less than 1.0 μM) | < 25% | + (activity was measured to be greater than 5.0 μM) | 25 to 100% | +++ (activity was measured to be less than 1.0 μM) |  |  |  |
| COc1ccccc1C1(C#N)CCN(C2CCC3CCC2C3)CC1 (stereo not drawn) [Compound 240] | 25 to 100% | +++ (activity was measured to be less than 1.0 μM) | 25 to 100% | ++ (activity was measured to be from 1.0 μM to 5.0 μM) | 25 to 100% | ++ (activity was measured to be from 1.0 μM to 5.0 μM) |  |  |  |
| COc1ccc(Cl)cc1C1(O)CCN(C2CCC3CCC2C3)CC1 (stereo not drawn) [Compound 228] | 25 to 100% | ++ (activity was measured to be from 1.0 μM to 5.0 μM) | < 25% | + (activity was measured to be greater than 5.0 μM) | < 25% | + (activity was measured to be greater than 5.0 μM) |  |  |  |
| COc1ccc(Cl)cc1C1(O)CCN(C2CCCCCC2)CC1 [Compound 380] |  | ++ (activity was measured to be from 1.0 μM to 5.0 μM) |  | + (activity was measured to be greater than 5.0 μM) |  | + (activity was measured to be greater than 5.0 μM) | 25 to 100% | < 25% | < 25% |
| Cc1ccc(Cl)cc1C1CCN(C2CC[C@H]3CC[C@H]2C3)CC1 (stereo partly drawn) [Compound 96] | 25 to 100% | +++ (activity was measured to be less than 1.0 μM) | 25 to 100% | ++ (activity was measured to be from 1.0 μM to 5.0 μM) | 25 to 100% | +++ (activity was measured to be less than 1.0 μM) |  |  |  |
| COc1ccccc1C1(C#N)CCN(C2CC3CCC2C3)CC1 (stereo not drawn) [Compound 136] | 25 to 100% | ++ (activity was measured to be from 1.0 μM to 5.0 μM) | < 25% | + (activity was measured to be greater than 5.0 μM) | 25 to 100% | + (activity was measured to be greater than 5.0 μM) |  |  |  |
